In ChEMBL document CHEMBL1201862, “PubChem BioAssay data set” (2004):
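96-well plates; 48 h exposure; 5 concentrations. Endpoints by linear interpolation between flanking doses. Not reached: highest tested concentration assigned. Abbreviation: GI50, concentration required for 50% inhibition of growth.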 Activity calls are given as the source filed them. No stated cut-off is given here; in the data, active = GI50 up to about 1.1 µM and inactive = higher.

Legend:
Experiment in all cases: NCI-60 cell line screen, 48 h
M14 = tested on: M14
U-251 = tested on: U-251
786-0 = tested on: 786-0
RPMI-8226 = tested on: RPMI-8226
A549 = tested on: A549
SN12C = tested on: SN12C
IGROV-1 = tested on: IGROV-1
NCI-H460 = tested on: NCI-H460
LOX IMVI = tested on: LOX IMVI
TK-10 = tested on: TK-10
SW-620 = tested on: SW-620
M19-MEL = tested on: M19-MEL
SK-MEL-28 = tested on: SK-MEL-28
OVCAR-4 = tested on: OVCAR-4
RXF 393 = tested on: RXF 393
DMS-114 = tested on: DMS-114
OVCAR-5 = tested on: OVCAR-5
NCI-H23 = tested on: NCI-H23
OVCAR-3 = tested on: OVCAR-3
EKVX = tested on: EKVX
LXFL 529 = tested on: LXFL 529
OVCAR-8 = tested on: OVCAR-8
RXF 631 = tested on: RXF 631
K562 = tested on: K562
SNB-75 = tested on: SNB-75
UACC-257 = tested on: UACC-257
NCI-H226 = tested on: NCI-H226
SK-OV-3 = tested on: SK-OV-3
SF-539 = tested on: SF-539
HCT-15 = tested on: HCT-15
KM-20L2 = tested on: KM-20L2
SK-MEL-2 = tested on: SK-MEL-2
UO-31 = tested on: UO-31
MOLT-4 = tested on: MOLT-4
NCI-H522 = tested on: NCI-H522
DLD-1 = tested on: DLD-1
UACC-62 = tested on: UACC-62
KM12 = tested on: KM12
CAKI-1 = tested on: CAKI-1
SF-268 = tested on: SF-268
HT-29 = tested on: HT-29
XF498 = tested on: XF498
HCT-116 = tested on: HCT-116
CCRF-CEM = tested on: CCRF-CEM
ACHN = tested on: ACHN
HOP-18 = tested on: HOP-18
SK-MEL-5 = tested on: SK-MEL-5
A498 = tested on: A498
Malme-3M = tested on: Malme-3M
SNB-19 = tested on: SNB-19
COLO 205 = tested on: COLO 205
HOP-92 = tested on: HOP-92
SNB-78 = tested on: SNB-78
HOP-62 = tested on: HOP-62
SR = tested on: SR
DMS-273 = tested on: DMS-273
HL-60 = tested on: HL-60
HCC 2998 = tested on: HCC 2998

Measured: GI50

O=C(N/C(=C\c1ccc(F)cc1)c1nc2ccccc2[nH]1)c1ccccc1
inactive: M14 > 100 µM | U-251 > 100 µM | 786-0 > 100 µM | RPMI-8226 > 100 µM | A549 > 100 µM | SN12C > 100 µM | IGROV-1 > 100 µM | NCI-H460 > 100 µM | LOX IMVI > 100 µM | TK-10 > 100 µM | SW-620 > 100 µM | M19-MEL > 100 µM | SK-MEL-28 > 100 µM | OVCAR-4 > 100 µM | RXF 393 > 100 µM | DMS-114 > 100 µM | OVCAR-5 > 100 µM | NCI-H23 > 100 µM | OVCAR-3 > 100 µM | EKVX > 100 µM | LXFL 529 > 100 µM | OVCAR-8 > 100 µM | RXF 631 > 100 µM | K562 > 100 µM | SNB-75 56 µM | UACC-257 > 100 µM | NCI-H226 > 100 µM | SK-OV-3 > 100 µM | SF-539 > 100 µM | KM-20L2 > 100 µM | SK-MEL-2 > 100 µM | UO-31 > 100 µM | MOLT-4 > 100 µM | NCI-H522 > 100 µM | DLD-1 > 100 µM | UACC-62 > 100 µM | KM12 > 100 µM | CAKI-1 > 100 µM | SF-268 > 100 µM | HT-29 > 100 µM | XF498 > 100 µM | HCT-116 > 100 µM | CCRF-CEM > 100 µM | ACHN > 100 µM | HOP-18 > 100 µM | SK-MEL-5 > 100 µM | A498 > 100 µM | Malme-3M > 100 µM | SNB-19 > 100 µM | COLO 205 > 100 µM | HOP-92 97.1 µM | SNB-78 > 100 µM
> 100 µM: HCT-15

CC1C=CC(C)C2(O)C(=O)NC(O)C12 (centres undefined)
inactive: M14 > 100 µM | U-251 > 100 µM | 786-0 > 100 µM | RPMI-8226 > 100 µM | A549 > 100 µM | SN12C > 100 µM | IGROV-1 > 100 µM | NCI-H460 > 100 µM | TK-10 > 100 µM | SW-620 > 100 µM | M19-MEL > 100 µM | SK-MEL-28 > 100 µM | OVCAR-4 > 100 µM | RXF 393 > 100 µM | DMS-114 > 100 µM | HOP-62 > 100 µM | SR > 100 µM | EKVX > 100 µM | LXFL 529 > 100 µM | DMS-273 > 100 µM | OVCAR-8 > 100 µM | RXF 631 > 100 µM | K562 > 100 µM | SNB-75 > 100 µM | UACC-257 > 100 µM | NCI-H226 > 100 µM | SK-OV-3 > 100 µM | SF-539 > 100 µM | KM-20L2 > 100 µM | SK-MEL-2 > 100 µM | UO-31 > 100 µM | MOLT-4 > 100 µM | NCI-H522 > 100 µM | DLD-1 > 100 µM | UACC-62 > 100 µM | KM12 > 100 µM | CAKI-1 > 100 µM | SF-268 > 100 µM | HCT-116 > 100 µM | CCRF-CEM > 100 µM | ACHN > 100 µM | HOP-18 > 100 µM | SK-MEL-5 > 100 µM | A498 > 100 µM | Malme-3M > 100 µM | SNB-19 > 100 µM | HL-60 > 100 µM | COLO 205 > 100 µM | HCC 2998 > 100 µM | SNB-78 > 100 µM
> 100 µM: HCT-15
